Source: publication PMC5465999, “Design of new acid-activated cell-penetrating peptides for tumor drug delivery” (PeerJ, 2017)
Where a SMILES comes first, the peptide text is derived from it. [ ]: non-standard residue; d: D form. Aib = CC(C)(N)C(=O)O

Legend:
[1] = design: method as in Zaro, Fei & Shen, 2012; Ouahab et al., 2014; details: ref Zaro, Fei & Shen, 2012; Ouahab et al., 2014; cited from earlier work
Text: However, due to the imidazole on histidine with a pKa around 6.5, histidine could protonate into a net positive charge at pH values below 6.5 ([Zaro, Fei & Shen, 2012]; [Ouahab et al., 2014]), thereby activating the membrane penetrating activity of TH and allowing its entry into the cells. However, histidine becomes relatively insensitive to the tumor extracellular environment when the pH is in the 6.5–7.2 range, thereby reducing the pH-dependent penetrating activity of TH. In order to extend the applications of acid-activated CPPs, it is necessary to improve their pH-response. The ability of ...

[2] = RP-HPLC retention time on C18 column (hydrophobicity); assay type: physicochemical; details: for RP-HPLC retention times: analytical RP-HPLC, C18, sunfire column 3.9 mm × 150 mm, Waters, used as measure of hydrophobicity
Description: All peptides shown in Table 1 were synthesized on a MBHA (0.43mmol/g) resin using the standard Fmoc-chemistry-based strategy. Fluorescein moiety (FITC) was attached to the N-terminusvia an aminohexanoic acid spacer by treating the resin-bound peptide (0.1 mmol) with FITC (0.1 mmol) and diisopropyl ethyl amine (0.5 mmol) in DMF for 12 h. All crude peptides were purified and analyzed by reversed-phase high performance liquid chromatography (RP-HPLC) on a C18 column, and then characterized by electrospray ionization mass spectrometry (ESI-MS).
Generally, cationic CPPs can bind on the anionic membrane surfaces via electrostatic interaction and promote cellular uptake ([Poon & Gariepy, 2007]). Thus, cationic functionalityis a critical factor for cell penetration. Histidine is especially pH-responsive ([Zaro, Fei & Shen, 2012]; [Ouahab et al., 2014]). Due to the presence of an imidazole ring, it has the ability to receive protons and protonate into a positive charge in an acidic tumor environment, whereas it remains predominantly uncharged under normal physiological conditions. The pH-responsiveness of histidine has been widely utilizedin the design of pH-responsive CPPs for targeted drug delivery. The protonation ability of histidine’simidazole moiety is the key for pH-dependent cellular uptake of histidine-rich peptides. […] In this regard, this study focused on the development of new histidine analogs that enhance the protonation of histidine by introducing alkylated groups with different electron-donating ability.

HeLa cells [3] = experiment: Quantitative cellular uptake assay (flow cytometry) of FITC-labeled peptides; assay type: cell-based; details: 1 h; for fluorescence intensity / cellular uptake relative to TH: all pH values (7.4, 6.5, 6.0); for fluorescence intensity / cellular uptake relative to TH / pH-responsive effect (change of fluorescence from pH 7.4 to pH 6.0) relative to TH: 5 µM FITC-labeled peptide
Description: The cells were harvested and centrifuged at 1,000 rpm for 5 min. Subsequently, the cell pellet was suspended and washed twice with PBS and resuspended in PBS. Finally, fluorescence intensity of 10,000 cells was analyzed with an FACS caliber flow cytometer using 488-nm laser excitation.

HeLa cells [4] = details: 2 h incubation, n = 3; for LDH levels with decreasing pH: pH 7.4, 6.5, 6.0
Description: Membrane integrity was evaluated using the CytoTox-ONE assay. Cells were seeded at 1 ×10^4cells/well in a 96-well plate 24 h before treatment. After 2 h incubation with 100 µL serum-free medium, adjusted to pH 7.4, 6.5 or 6.0 and containing various concentrations of peptides, 40 µL of medium was transferred to a black fluorescence plate and incubated for 10 min with 40 µL of CytoTox-ONE reagent, followed by 20 µL of stop solution. Fluorescence was recorded with an excitation wavelength of 560 nm and emission wavelength of 590 nm. Untreated cells were defined as those where no leakage was observed while 100% leakage was defined as a total release of LDH due to cell lysis in 0.2% Triton X-100.

HeLa cells [5] = details: 2 h incubation, MTT; for cytotoxicity: pH 6.0, 20 µM; for viability of cells: pH 7.4 and pH 6.5, different concentrations
Description: Cytotoxicity of all peptides against HeLa cells was evaluated using the MTT assay under varying pH conditions (pH 7.4, 6.5 and 6.0). Cells were seeded at 1 × 10^4 cells/well in 96-well plates, 24 h before treatment. After washing, cells were treated with serum-free medium, adjusted to pH 7.4, 6.5 or 6.0, and containing various concentrations of peptides. After 2 h incubation, 10 µL of MTT (5 mg/mL) was added to each well and incubated for another 4 h at 37°C. Then, the medium was removed and cells were dissolved by 150 µL dimethyl sulfoxide. Absorbance was determined using a microplate reader at 490 nm. Cell viability (%) was calculated using the following equation: Atest∕Acontrol × 100%, where Atest and Acontrol represent the absorbance of cells treated with different test solutions and blank culture media, respectively.

HeLa cells [6] = experiment: Confocal laser scanning microscopy of FITC-labeled peptides; assay type: cell-based; details: CLSM, 5 µM FITC-labeled peptide, 1 h, 37°C; for pH-responsiveness of cellular uptake: pH 7.4, 6.5, 6.0
Description: To obtain a direct insight into the distribution of FITC-labeled peptides in cells, HeLa cells (6 × 10^4 cells/well) were plated in a glass-bottom culture dish for 24 h and then incubated with the FITC-labeled peptides using conditions and concentrations described above. After 1 h incubation at 37°C, the cells were washed with cold PBS three times and imaged using confocal laser scanning microscopy.

mice red blood cells = details: mouse erythrocytes in PBS, 1 h at 37°C; maximum concentration of 200 µM; n = 3
Description: Fresh mouse blood was collected in heparin sodium-containing centrifuge tubes. Erythrocytes were separated by centrifugation at 800×g for 10 min and washed three times with phosphate buffered saline (PBS). Obtained erythrocytes were resuspended in PBS to 8 % (v/v). 100 µL of the peptide solution of various concentrations and 100 µL of the erythrocyte suspension were added to the wells of a 96-well plate. PBS and 0.2 % TritonX-100 were used as agents for 0 % and 100 % hemolysis, respectively. Plates were incubated for 1 h at 37°C and centrifuged at 1,200×g for 15 min. A total of 100 µL of each supernatant was transferred to a 96-well plate, and the release of hemoglobin was determined using a microplate reader at 490 nm.

[7] = in vitro and in vivo conditions; ref Zhang et al., 2011; cited from earlier work
Text: In recent years, pH-responsive CPPs have been developed for targeted delivery based on the pH gradient between the tumor tissues and physiological environment ([Lee, Gao & Bae, 2008]; [Shi et al., 2015]; [Jiang et al., 2012]; [Fei et al., 2014]). […] The acidic tumor microenvironment mandates the development of pH-responsive CPPs for improved s ...

Compound | RP-HPLC retention times [2] [min] | fluorescence intensity / cellular uptake relative to TH (HeLa cells [3]) | LDH levels at pH 6.5 and pH 6.0 relative to pH 7.4 (HeLa cells [4]) | cytotoxic variation from pH 7.4 to pH 6.0 (HeLa cells [5]) | pH-responsiveness of cellular uptake (HeLa cells [6]) | pH-responsive effect (change of fluorescence from pH 7.4 to pH 6.0) relative to TH (HeLa cells [3]) | LDH levels with decreasing pH (HeLa cells [4]) | cytotoxicity (HeLa cells [5]) | viability of cells (HeLa cells [5]) | further results
N[C@@H](Cc1c[nH]cn1)C(=O)O [histidine] |  |  |  |  |  |  |  |  |  | pKa of the imidazole on histidine [1]: around 6.5
AGYLLGHBINLHBHBLAHBL(Aib)HBHBIL-NH2 [Butyl-TH, TH analog with all histidines replaced by L-his(Butyl)] | 20.561 | increased remarkably | comparable to that at pH 7.4 | didn’t show obvious cytotoxic variation | more pH-responsive at pH 6.5 |  |  |  |  | fluorescence intensity, fold higher than TH (HeLa cells [3]; pH 6.5, 5 µM FITC-labeled peptide, serum-free medium): approximately 1.72 fold
AGYLLGHIINLHIHILAHIL(Aib)HIHIIL-NH2 [Isopropyl-TH, TH analog with all histidines replaced by L-his(Isopropyl)] | 19.041 |  | comparable to that at pH 7.4 | didn’t show obvious cytotoxic variation | no pH-responsive at pH 6.5 | lower than that of TH |  |  |  | fluorescence intensity at pH 6.5 relative to pH 7.4 (HeLa cells [6]): slightly lower than that at pH 7.4
AGYLLGHMINLHMHMLAHML(Aib)HMHMIL-NH2 [Methyl-TH, TH analog with all histidines replaced by L-his(Methyl)] | 18.058 | reduction of cellular uptake | comparable to that at pH 7.4 |  | poor pH-responsiveness |  |  |  |  | hydrophobicity relative to TH ([2]; from retention time on the C18 reverse-phase HPLC column): less hydrophobic than TH; cytotoxicity at low pH (HeLa cells [5]; pH 6.5 and pH 6.0): didn’t show any significant cytotoxicity; cellular uptake relative to TH (HeLa cells [6]; pH 6.5 and pH 6.0): lower cellular uptake than TH
AGYLLGHEINLHEHELAHEL(Aib)HEHEIL-NH2 [Ethyl-TH, TH analog with all histidines replaced by L-his(Ethyl)] | 18.623 |  |  |  | better pH-dependent cellular uptake than TH at pH 6.0 | better than TH | rose as the pH value decreased | increased | higher than 80% | fluorescence intensity relative to TH (HeLa cells [3]; pH 7.4 and 6.5, 5 µM FITC-labeled peptide): lower fluorescence intensity than TH; LDH release in comparison with TH and the other analogs (HeLa cells [4]; pH 6.0): most obvious LDH release
CC[C@H](C)[C@H](NC(=O)[C@H](Cc1c[nH]cn1)NC(=O)[C@H](Cc1c[nH]cn1)NC(=O)C(C)(C)NC(=O)[C@H](CC(C)C)NC(=O)[C@H](Cc1c[nH]cn1)NC(=O)[C@H](C)NC(=O)[C@H](CC(C)C)NC(=O)[C@H](Cc1c[nH]cn1)NC(=O)[C@H](Cc1c[nH]cn1)NC(=O)[C@H](CC(C)C)NC(=O)[C@H](CC(N)=O)NC(=O)[C@@H](NC(=O)[C@H](Cc1c[nH]cn1)NC(=O)CNC(=O)[C@H](CC(C)C)NC(=O)[C@H](CC(C)C)NC(=O)[C@H](Cc1ccc(O)cc1)NC(=O)CNC(=O)[C@H](C)N)[C@@H](C)CC)C(=O)N[C@@H](CC(C)C)C(N)=O [TH] (H-AGYLLGHINLHHLAHL[Aib]HHIL-NH2) |  |  |  |  |  |  | rose as the pH value decreased | increased | higher than 80% | hemolytic activity (cytotoxicity against red blood cells) (mice red blood cells): little cytotoxicity against red blood cells; toxicity compared to TK [7]: decreased
